Assay results: patent US7402548B2, “Benzoxazole compounds, process for producing the same and herbicides” (Kyoyu Agri Co., Ltd., priority 2000, dated 2008)

Key:
morning glory [1] = assay: Soil treatment test for upland field; assay type: in vivo, Ipomoea spps.; parameters: key: 0 = normal development, 5 = all killed; details: 500 g/ha, 3 weeks, glass house 25° C.
Procedure, shortened: (§1)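 Seeds were sown in alluvial soil in pots, and a wettable powder diluted in water with 0.05% surfactant was sprayed evenly on the soil surface at 500 g/ha. Plants were kept in a glass house at about 25° C for 3 weeks, then damage was scored 0–5 against untreated controls.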

barnyard grass [2] = assay: Soil treatment test for upland field; assay type: in vivo, Eschinochloa crusgalli; parameters: key: 0 = normal development, 5 = all killed; details: 500 g/ha, 3 weeks, glass house 25° C.
Procedure, shortened: as §1

livid amaranth [3] = assay: Soil treatment test for upland field; assay type: in vivo, Amaranthus lividus; parameters: key: 0 = normal development, 5 = all killed; details: 500 g/ha, 3 weeks, glass house 25° C.
Procedure, shortened: as §1

green foxtail [4] = assay: Soil treatment test for upland field; assay type: in vivo, Setaria viridis; parameters: key: 0 = normal development, 5 = all killed; details: 500 g/ha, 3 weeks, glass house 25° C.
Procedure, shortened: as §1

wheat [5] = assay: Soil treatment test for upland field; assay type: in vivo; parameters: key: 0 = normal development, 5 = all killed; details: 500 g/ha, 3 weeks, glass house 25° C.
Procedure, shortened: as §1

solgum [6] = assay: Soil treatment test for upland field; assay type: in vivo; parameters: key: 0 = normal development, 5 = all killed; details: 500 g/ha, 3 weeks, glass house 25° C.
Procedure, shortened: as §1

corn [7] = assay: Soil treatment test for upland field; assay type: in vivo; parameters: key: 0 = normal development, 5 = all killed; details: 500 g/ha, 3 weeks, glass house 25° C.
Procedure, shortened: as §1

sugar beat [8] = assay: Soil treatment test for upland field; assay type: in vivo; parameters: key: 0 = normal development, 5 = all killed; details: 500 g/ha, 3 weeks, glass house 25° C.
Procedure, shortened: as §1

soybean [9] = assay: Soil treatment test for upland field; assay type: in vivo; parameters: key: 0 = normal development, 5 = all killed; details: 500 g/ha, 3 weeks, glass house 25° C.
Procedure, shortened: as §1

annual bluegrass [10] = assay: Soil treatment test for upland field; assay type: in vivo, Poa annua; parameters: key: 0 = normal development, 5 = all killed; details: 500 g/ha, 3 weeks, glass house 25° C.
Procedure, shortened: as §1

Large crabgrass [11] = assay: Soil treatment test for upland field; assay type: in vivo, Digitaria adscendens; parameters: key: 0 = normal development, 5 = all killed; details: 500 g/ha, 3 weeks, glass house 25° C.
Procedure, shortened: as §1

common lambsquarters [12] = assay: Soil treatment test for upland field; assay type: in vivo, Chenopodium album; parameters: key: 0 = normal development, 5 = all killed; details: 500 g/ha, 3 weeks, glass house 25° C.
Procedure, shortened: as §1

velvetleaf [13] = assay: Soil treatment test for upland field; assay type: in vivo, Abutilon theophrasti; parameters: key: 0 = normal development, 5 = all killed; details: 500 g/ha, 3 weeks, glass house 25° C.
Procedure, shortened: as §1

barnyard grass [14] = assay: Herbicidal test for paddy field; assay type: in vivo, Eschinochloa crusgalli; details: 500 g/ha, dropwise addition to paddy water at 1.5 leaf stage of barnyard grass; glass house 25° C., 3 weeks; rank 0-5 vs non-treated district
Description: (§2) Wagner pots, each having an area of 1/5000 are, were packed with Ube soil (alluvial soil) and planted with seeds or tubers of young rice plant, barnyard grass, bulrush, Cyperus serotinus Rottb., arrowhead and monochoria. Then, the pots were filled with water to a depth of 3 cm.
(§3) Each wettable powder of the desired Compounds (I) shown in Tables 1 to 21, 24, 25, 28 and 29 prepared in accordance with Example 2 was diluted with water containing a surfactant (0.05%) and subjected to dropwise addition treatment by using pipet so that an effective concentration of the compound (I) in each herbicide became 500 g/ha at 1.5 leaf stage of barnyard grass.
(§4) These plants were controlled in a glass house at an average temperature of 25° C. for 3 weeks, and then herbicidal effects thereof were investigated.
(§5) The herbicidal effects are evaluated according to the following 6 ranks as compared with non-treated district. (0: normal development, 1: Less damaged, 2: Slightly damaged, 3: Moderately damaged, 4: Severely damaged, 5: All killed). Incidentally, “-” in the column means not investigated.

blackgrass [15] = assay: Soil treatment test for upland field; assay type: in vivo, Alopecurus aegualis; parameters: key: 0 = normal development, 5 = all killed; details: 500 g/ha, 3 weeks, glass house 25° C.
Procedure, shortened: as §1

bulrush = assay: Herbicidal test for paddy field; assay type: in vivo, Scrips juncoides; details: 500 g/ha, dropwise addition to paddy water at 1.5 leaf stage of barnyard grass; glass house 25° C., 3 weeks; rank 0-5 vs non-treated district
Description: as §2, §3, §4, §5

annual bluegrass [16] = assay: Foliar spread test for upland field; assay type: in vivo, Poa annua; parameters: key: 0 = normal development, 5 = all killed (6 ranks vs. untreated); details: foliar spray, 500 ppm, 3 weeks, glass house 25° C.
Procedure, shortened: (§6)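 Plants grown about 2 weeks at 25 °C in volcanic ash soil were sprayed with wettable powder diluted to 500 ppm in water with 0.5% surfactant. After 3 weeks at 25 °C, damage was scored 0 (normal) to 5 (all killed) against untreated plants.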

green foxtail [17] = assay: Foliar spread test for upland field; assay type: in vivo, Setaria viridis; parameters: key: 0 = normal development, 5 = all killed (6 ranks vs. untreated); details: foliar spray, 500 ppm, 3 weeks, glass house 25° C.
Procedure, shortened: as §6

morning glory [18] = assay: Foliar spread test for upland field; assay type: in vivo, Ipomoea spps.; parameters: key: 0 = normal development, 5 = all killed (6 ranks vs. untreated); details: foliar spray, 500 ppm, 3 weeks, glass house 25° C.
Procedure, shortened: as §6

livid amaranth [19] = assay: Foliar spread test for upland field; assay type: in vivo, Amaranthus lividus; parameters: key: 0 = normal development, 5 = all killed (6 ranks vs. untreated); details: foliar spray, 500 ppm, 3 weeks, glass house 25° C.
Procedure, shortened: as §6

wheat [20] = assay: Foliar spread test for upland field; assay type: in vivo; parameters: key: 0 = normal development, 5 = all killed (6 ranks vs. untreated); details: foliar spray, 500 ppm, 3 weeks, glass house 25° C.
Procedure, shortened: as §6

solgum [21] = assay: Foliar spread test for upland field; assay type: in vivo; parameters: key: 0 = normal development, 5 = all killed (6 ranks vs. untreated); details: foliar spray, 500 ppm, 3 weeks, glass house 25° C.
Procedure, shortened: as §6

cotton = assay: Foliar spread test for upland field; assay type: in vivo; parameters: key: 0 = normal development, 5 = all killed (6 ranks vs. untreated); details: foliar spray, 500 ppm, 3 weeks, glass house 25° C.
Procedure, shortened: as §6

corn [22] = assay: Foliar spread test for upland field; assay type: in vivo; parameters: key: 0 = normal development, 5 = all killed (6 ranks vs. untreated); details: foliar spray, 500 ppm, 3 weeks, glass house 25° C.
Procedure, shortened: as §6

sugar beat [23] = assay: Foliar spread test for upland field; assay type: in vivo; parameters: key: 0 = normal development, 5 = all killed (6 ranks vs. untreated); details: foliar spray, 500 ppm, 3 weeks, glass house 25° C.
Procedure, shortened: as §6

soybean [24] = assay: Foliar spread test for upland field; assay type: in vivo; parameters: key: 0 = normal development, 5 = all killed (6 ranks vs. untreated); details: foliar spray, 500 ppm, 3 weeks, glass house 25° C.
Procedure, shortened: as §6

blackgrass [25] = assay: Foliar spread test for upland field; assay type: in vivo, Alopecurus aegualis; parameters: key: 0 = normal development, 5 = all killed (6 ranks vs. untreated); details: foliar spray, 500 ppm, 3 weeks, glass house 25° C.
Procedure, shortened: as §6

barnyardgrjass = assay: Foliar spread test for upland field; assay type: in vivo, Eschinochloa crusgalli; parameters: key: 0 = normal development, 5 = all killed (6 ranks vs. untreated); details: foliar spray, 500 ppm, 3 weeks, glass house 25° C.
Procedure, shortened: as §6

Large crabgrass [26] = assay: Foliar spread test for upland field; assay type: in vivo, Digitaria adscendens; parameters: key: 0 = normal development, 5 = all killed (6 ranks vs. untreated); details: foliar spray, 500 ppm, 3 weeks, glass house 25° C.
Procedure, shortened: as §6

common lambsquarters [27] = assay: Foliar spread test for upland field; assay type: in vivo, Chenopodium album; parameters: key: 0 = normal development, 5 = all killed (6 ranks vs. untreated); details: foliar spray, 500 ppm, 3 weeks, glass house 25° C.
Procedure, shortened: as §6

velvetleaf [28] = assay: Foliar spread test for upland field; assay type: in vivo, Abutilon theophrasti; parameters: key: 0 = normal development, 5 = all killed (6 ranks vs. untreated); details: foliar spray, 500 ppm, 3 weeks, glass house 25° C.
Procedure, shortened: as §6

| SMILES | Effects Morning glory (morning glory [1]) | Effects Barnyardgrass (barnyard grass [2]) | Effects Livid amaranth (livid amaranth [3]) | Effects Green foxtail (green foxtail [4]) | Effects Wheat (wheat [5]) | Effects Solgum (solgum [6]) | Effects Corn (corn [7]) | Effects Sugar beat (sugar beat [8]) | Effects Annual bluegrass (annual bluegrass [10]) | Effects Large crabgrass (Large crabgrass [11]) | Effects Common lambsquarters (common lambsquarters [12]) | Effects Velvetleaf (velvetleaf [13]) | Effects Barnyardgrass (barnyard grass [14]) | Effects Blackgrass (blackgrass [15]) | Effects Bulrush (bulrush) | Effects Annual bluegrass (annual bluegrass [16]) | Effects Green foxtail (green foxtail [17]) | Effects Morning glory (morning glory [18]) | Effects Livid amaranth (livid amaranth [19]) | Effects Wheat (wheat [20]) | also measured |
| --- | --- | --- | --- | --- | --- | --- | --- | --- | --- | --- | --- | --- | --- | --- | --- | --- | --- | --- | --- | --- | --- |
| CCC(=Cc1cccc(C(F)(F)F)c1)c1nc2cc(C#N)c(Cl)cc2o1 [I-c-143] | 5 | 4 | 5 | 5 | 1 | 3 | 1 | 5 | 5 | 5 | 5 | 5 | 5 | 4 | 5 | – | – | – | – | – | Effects Soybean (soybean [9]): 3 |
| CCCC(=Cc1cccc(C(F)(F)F)c1)c1nc2cc(C#N)c(Cl)cc2o1 [I-c-145] | 5 | 4 | 5 | 5 | 1 | 1 | 0 | 5 | 5 | 5 | 5 | 5 | 4 | 5 | 3 | 3 | 5 | 5 | 5 | 2 | Effects Soybean (soybean [9]): 0; Effects Solgum (solgum [21]): 2; Effects Sotton (cotton): 4; Effects Corn (corn [22]): 2; Effects Sugar beat (sugar beat [23]): 3; Effects Soybean (soybean [24]): 5; Effects Blackgrass (blackgrass [25]): 2; Effects Barnyardgrass (barnyardgrjass): 2; Effects Large crabgrass (Large crabgrass [26]): 3; Effects Common lambsquarters (common lambsquarters [27]): 5; Effects Velvetleaf (velvetleaf [28]): 3 |
| CCC(=Cc1cccc(C(F)(F)F)c1)c1nc2cc(F)ccc2o1 [I-c-42] | 3 | 5 | 5 | 5 | 0 | 5 | 1 | 5 | 5 | 5 | 5 | 5 | 5 | 5 | 5 | 3 | 4 | 4 | 5 | 2 | Effects Solgum (solgum [21]): 2; Effects Sotton (cotton): 3; Effects Corn (corn [22]): 3; Effects Sugar beat (sugar beat [23]): 4; Effects Soybean (soybean [24]): 5; Effects Blackgrass (blackgrass [25]): 3; Effects Barnyardgrass (barnyardgrjass): 2; Effects Large crabgrass (Large crabgrass [26]): 4; Effects Common lambsquarters (common lambsquarters [27]): 5; Effects Velvetleaf (velvetleaf [28]): 3 |
| CCC(=Cc1cccc(C(F)(F)F)c1)c1nc2cc(C)ccc2o1 [I-c-76] | 1 | 4 | 5 | 5 | 0 | 3 | 1 | 0 | 5 | 5 | 5 | 5 | 4 | 5 | 3 | 2 | 4 | 5 | 5 | 2 | Effects Solgum (solgum [21]): 2; Effects Sotton (cotton): 3; Effects Corn (corn [22]): 2; Effects Sugar beat (sugar beat [23]): 4; Effects Soybean (soybean [24]): 5; Effects Blackgrass (blackgrass [25]): 2; Effects Barnyardgrass (barnyardgrjass): 2; Effects Large crabgrass (Large crabgrass [26]): 4; Effects Common lambsquarters (common lambsquarters [27]): 4; Effects Velvetleaf (velvetleaf [28]): 3 |
